Values after ≈ are worked out from the molar mass of the structure shown. Structures can show the parent of a compound that is named as a salt. Where two headings read alike, the source gives them in different places.
Key:
[1] = test system: Enterobactor cloacae IFO 13525; assay: Minimal inhibitory concentration, agar plate dilution method; type: cell-based
Procedure: (§1) The antibacterial activities of the compounds of the present invention against various bacteria (inoculum size : 10^6 cells/ml) were tested by the agar plate dilution method, and the results are shown in the following Table 1.

[2] = test system: Escherichia coli NIHJ JC-2; assay: as above; type: cell-based; conditions: NIHJJC2
Procedure: as §1

[3] = test system: Klebsiella pneumoniae T 25; assay: as above; type: cell-based; conditions: T25
Procedure: as §1

[4] = test system: Pseudomonas aeruginosa NCTC 10490; assay: as above; type: cell-based; conditions: NCTC10490
Procedure: as §1

[5] = test system: Serratia marcescens IID 618; assay: as above; type: cell-based; conditions: IID618
Procedure: as §1

[6] = Concentration of the compound in blood after oral administration to rats (bioassay); type: in vivo, Male wister rats; conditions: rat, 50 mg/kg
Procedure: Male wister rats (7 weeks old) were administered orally with the test compound, and the change of the concentration of the compound in blood was measured.
Dosage of the test compound: 50 mg/kg
Quantitative method: Bioassy
test bacterium: Escherichia coli SC507)

[7] = Enterobactor cloacae IFO 13525, inoculum size 10^6 cells/ml, read-out: MIC
[8] = Escherichia coli NIHJ JC-2, inoculum size 10^6 cells/ml, read-out: MIC
[9] = Klebsiella pneumoniae T 25, inoculum size 10^6 cells/ml, read-out: MIC
[10] = Pseudomonas aeruginosa NCTC 10490, inoculum size 10^6 cells/ml, read-out: MIC
[11] = Serratia marcescens IID 618, inoculum size 10^6 cells/ml, read-out: MIC

| SMILES | MIC [1] | MIC ([2]; Escherichia coli) | MIC ([3]; Klebsiella pneumoniae) | MIC ([4]; Pseudomonas aeruginosa) | MIC ([5]; Serratia marcescens) | MIC [1, 7] | MIC [2, 8] | MIC [3, 9] | MIC [4, 10] | MIC [5, 11] | concentration at 1 h [6] | concentration at 2 h [6] | concentration at 4 h [6] |
| --- | --- | --- | --- | --- | --- | --- | --- | --- | --- | --- | --- | --- | --- |
| C=CCOC(=O)/C=C\SC1=C(C(=O)[O-])N2C(=O)[C@@H](NC(=O)/C(=N\OCC(=O)[O-])c3csc(N)n3)[C@H]2SC1.[Na+].[Na+] [D, 7β-{α-(2-aminothiazole-4-yl)-α-[(Z)-carboxymethoxyimino]acetamido}-3-[(Z)-2-allyloxycarbonylvinylthio]-3-cephem-4-carboxylic acid sodium salt] | 12.5 µg/mL | 0.39 µg/mL | 0.39 µg/mL | 6.25 µg/mL | 0.39 µg/mL |  |  |  |  |  |  |  |  |
| CC1=C(C(=O)O)N2C(=O)[C@@H](NC(=O)[C@H](N)c3ccccc3)[C@H]2SC1 [YY, Cefalexin, reference compound] | > 100 µg/mL | 12.5 µg/mL (≈ 36 µM) | 100 µg/mL (≈ 288 µM) | > 100 µg/mL | > 100 µg/mL |  |  |  |  |  |  |  |  |
| CC(C)OC(=O)/C=C\SC1=C(C(=O)O)N2C(=O)[C@@H](NC(=O)/C(=N\OCC(=O)O)c3csc(N)n3)[C@H]2SC1 [C] |  |  |  |  |  | 6.25 µg/mL (≈ 10.9 µM) | 0.39 µg/mL (≈ 0.682 µM) | 0.39 µg/mL (≈ 0.682 µM) | 12.5 µg/mL (≈ 21.9 µM) | 0.39 µg/mL (≈ 0.682 µM) |  |  |  |
| CCOC(=O)/C=C\SC1=C(C(=O)O)N2C(=O)[C@@H](NC(=O)/C(=N\OCC(=O)O)c3csc(N)n3)[C@H]2SC1 [B] |  |  |  |  |  | 12.5 µg/mL (≈ 22.4 µM) | 0.2 µg/mL (≈ 0.359 µM) | 0.39 µg/mL (≈ 0.699 µM) | 3.13 µg/mL (≈ 5.61 µM) | 0.39 µg/mL (≈ 0.699 µM) | 34000 ng/mL | 37100 ng/mL | 31000 ng/mL |
| COC(=O)/C=C\SC1=C(C(=O)O)N2C(=O)[C@@H](NC(=O)/C(=N\OCC(=O)O)c3csc(N)n3)[C@H]2SC1 [A, 7β-{α-(2-aminothiazole-4-yl)-β-[(Z)-carboxymethoxyimino]acetamido)}-3[(Z)-2-methoxycarbonylvinylthio]-3-cephem-4-carboxylic acid sodium salt] |  |  |  |  |  | 25 µg/mL | 0.2 µg/mL | 0.39 µg/mL | 25 µg/mL | 1.56 µg/mL | 37800 ng/mL | 38900 ng/mL | 32500 ng/mL |

From patent US4699981A, “Cephalosporin derivatives” (Taisho Pharmaceutical Co., Ltd., priority 1985, dated 1987)
